Reference: the supplement of paper PMC5908809

Experiments:
[1] = tested on: normal NK cells expanded with K562-aAPC; experiment: drug sensitivity score (DSS) (DSS units); higher = more sensitive; extreme values may be limits of the assay; details: 72 h; IL-2 2.5 ng/mL
Procedure: (§1)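 Drug sensitivity and resistance testing on K562-aAPC-expanded normal NK cells: 5 concentrations (10-fold steps over a 10,000-fold range), 72 h at 37 °C, viability by CellTiter-Glo normalised to DMSO and benzethonium chloride controls; DSS from the fitted curve.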

NK-92 (IL-2 2.5 ng/mL) [2] = experiment: as above; details: 72 h
IMC-1 (IL-2 20 ng/mL) [3] = experiment: as above; details: 72 h
KHYG-1 (IL-2 2.5 ng/mL) [4] = experiment: as above; details: 72 h
KAI3 (IL-2 2.5 ng/mL) [5] = experiment: as above; details: 72 h
[6] = tested on: normal primary NK cells, pool 3 (3 donors) (IL-2 2.5 ng/mL); experiment: as above; details: 72 h
[7] = tested on: normal primary NK cells, pool 2 (3 donors) (IL-2 2.5 ng/mL); experiment: as above; details: 72 h
[8] = tested on: normal primary NK cells, pool 1 (3 donors), resting (IL-2 0 ng/mL); experiment: as above; details: 72 h
YT (IL-2 2.5 ng/mL) [9] = experiment: as above; details: 72 h
NKL (IL-2 2.5 ng/mL) [10] = experiment: as above; details: 72 h
SNK-6 (IL-2 2.5 ng/mL) [11] = experiment: as above; details: 72 h
NK-YS (IL-2 2.5 ng/mL) [12] = experiment: as above; details: 72 h
[13] = tested on: normal primary NK cells, pool 1 (3 donors) (IL-2 2.5 ng/mL); experiment: as above; details: 72 h
DERL-7 (IL-2 2.5 ng/mL) [14] = experiment: as above; details: 72 h
NK-92 (IL-2 2.5 ng/mL) [15] = experiment: percent inhibition of viability; higher = more inhibition; details: 72 h
IMC-1 (IL-2 20 ng/mL) [16] = experiment: as above; details: 72 h
KHYG-1 (IL-2 2.5 ng/mL) [17] = experiment: as above; details: 72 h
KAI3 (IL-2 2.5 ng/mL) [18] = experiment: as above; details: 72 h
[19] = tested on: normal primary NK cells, pool 3 (3 donors) (IL-2 2.5 ng/mL); experiment: as above; details: 72 h
[20] = tested on: normal primary NK cells, pool 2 (3 donors) (IL-2 2.5 ng/mL); experiment: as above; details: 72 h
[21] = tested on: normal primary NK cells, pool 1 (3 donors), resting (IL-2 0 ng/mL); experiment: as above; details: 72 h
YT (IL-2 2.5 ng/mL) [22] = experiment: as above; details: 72 h
NKL (IL-2 2.5 ng/mL) [23] = experiment: as above; details: 72 h
SNK-6 (IL-2 2.5 ng/mL) [24] = experiment: as above; details: 72 h
NK-YS (IL-2 2.5 ng/mL) [25] = experiment: as above; details: 72 h
[26] = tested on: normal primary NK cells, pool 1 (3 donors) (IL-2 2.5 ng/mL); experiment: as above; details: 72 h
DERL-7 (IL-2 2.5 ng/mL) [27] = experiment: as above; details: 72 h
[28] = tested on: normal NK cells expanded with K562-aAPC; experiment: as above; details: 72 h, IL-2 2.5 ng/mL
Procedure: as §1

CCCCc1nc2cc(/C=C/C(=O)NO)ccc2n1CCN(CC)CC [Pracinostat] (max concentration tested 10000 nM)
Details | drug sensitivity score
DERL-7 (IL-2 2.5 ng/mL) [14] | 21.4
IMC-1 (IL-2 20 ng/mL) [3] | 19.6
KAI3 (IL-2 2.5 ng/mL) [5] | 25.4
KHYG-1 (IL-2 2.5 ng/mL) [4] | 22.1
NK-92 (IL-2 2.5 ng/mL) [2] | 23.6
NK-YS (IL-2 2.5 ng/mL) [12] | 20.3
NKL (IL-2 2.5 ng/mL) [10] | 24.6
SNK-6 (IL-2 2.5 ng/mL) [11] | 20.1
YT (IL-2 2.5 ng/mL) [9] | 20.1
[1] | 21.7
[6] | 19.9
[7] | 20.6
[8] | 22.5
[13] | 21.1

percent inhibition of viability [%]
Details | 1 nM | 10 nM | 100 nM | 1000 nM | 10000 nM
DERL-7 (IL-2 2.5 ng/mL) [27] | 1.33 | -8.53 | 21.4 | 100 | 100
IMC-1 (IL-2 20 ng/mL) [16] | -2.79 | 2.79 | 10 | 100 | 101
KAI3 (IL-2 2.5 ng/mL) [18] | -0.25 | 10.9 | 59.8 | 100 | 106
KHYG-1 (IL-2 2.5 ng/mL) [17] | 0.14 | -0.26 | 26.9 | 103 | 107
NK-92 (IL-2 2.5 ng/mL) [15] | 0.01 | -2.17 | 42.9 | 103 | 107
NK-YS (IL-2 2.5 ng/mL) [25] | -2.5 | 3.97 | 26.5 | 93.4 | 106
NKL (IL-2 2.5 ng/mL) [23] | -9.49 | 12.2 | 57 | 92.3 | 105
SNK-6 (IL-2 2.5 ng/mL) [24] | -6.98 | 1.26 | 17.8 | 96.5 | 100
YT (IL-2 2.5 ng/mL) [22] | 2.35 | -0.3 | 12.7 | 100 | 105
[19] | -9.56 | -4.29 | 13.1 | 97.8 | 98.9
[20] | -8.41 | -3.58 | 22.6 | 94.5 | 94.8
[21] | 0.06 | -6.1 | 49.2 | 86.2 | 90.8
[26] | -0.69 | -4.78 | 22.1 | 96.7 | 97.5
[28] | 1.37 | 8.83 | 23.6 | 100 | 101

CCn1cc(-c2ccnc3[nH]c(-c4cccc(CN(C)C)c4)cc23)c(-c2ccc(NC(=O)N(C)C)cc2)n1 (max concentration tested 1000 nM)
Details | drug sensitivity score
DERL-7 (IL-2 2.5 ng/mL) [14] | 14.7
IMC-1 (IL-2 20 ng/mL) [3] | 6.3
KAI3 (IL-2 2.5 ng/mL) [5] | 4.01
KHYG-1 (IL-2 2.5 ng/mL) [4] | 8.32
NK-92 (IL-2 2.5 ng/mL) [2] | 5.05
NK-YS (IL-2 2.5 ng/mL) [12] | 16.5
NKL (IL-2 2.5 ng/mL) [10] | 3.99
SNK-6 (IL-2 2.5 ng/mL) [11] | 18.6
YT (IL-2 2.5 ng/mL) [9] | 4.47
[1] | 8.97
[6] | 0
[7] | 0
[8] | 0
[13] | 0

percent inhibition of viability [%]
Details | 0.1 nM | 1 nM | 10 nM | 100 nM | 1000 nM
DERL-7 (IL-2 2.5 ng/mL) [27] | -1.42 | -13.7 | 13.4 | 68.1 | 56.9
IMC-1 (IL-2 20 ng/mL) [16] | -3.05 | 2.14 | 9.34 | 18.7 | 69
KAI3 (IL-2 2.5 ng/mL) [18] | 0.71 | -0.96 | 15.3 | 16.4 | 34.5
KHYG-1 (IL-2 2.5 ng/mL) [17] | -0.5 | 3.29 | 9.71 | 39.2 | 54
NK-92 (IL-2 2.5 ng/mL) [15] | -10.8 | -15.2 | -2.48 | 28.9 | 35.5
NK-YS (IL-2 2.5 ng/mL) [25] | -3.92 | -3.4 | 26.2 | 69.9 | 66.9
NKL (IL-2 2.5 ng/mL) [23] | -15 | -6.31 | 2.14 | 11.6 | 43.2
SNK-6 (IL-2 2.5 ng/mL) [24] | 20.9 | 18.6 | 35 | 71.1 | 65.4
YT (IL-2 2.5 ng/mL) [22] | 2.03 | 4.54 | 11.2 | 19.1 | 39.5
[19] | -9.36 | -0.39 | 7.48 | -0.31 | 7.08
[20] | -0.19 | 2.58 | 11.4 | 2.17 | 5.89
[21] | 10.8 | -0.01 | -0.34 | -11.5 | 8.25
[26] | 6.54 | -2.75 | 2.78 | -10.4 | -5.89
[28] | -5.72 | -6.24 | -0.83 | 49.9 | 32

c1ccc2c(CCNc3ccc(Nc4ccncc4)cc3)c[nH]c2c1 [Serdemetan] (max concentration tested 10000 nM)
Details | drug sensitivity score
DERL-7 (IL-2 2.5 ng/mL) [14] | 17.7
IMC-1 (IL-2 20 ng/mL) [3] | 5.74
KAI3 (IL-2 2.5 ng/mL) [5] | 15.1
KHYG-1 (IL-2 2.5 ng/mL) [4] | 8.49
NK-92 (IL-2 2.5 ng/mL) [2] | 7.67
NK-YS (IL-2 2.5 ng/mL) [12] | 11.7
NKL (IL-2 2.5 ng/mL) [10] | 20.1
SNK-6 (IL-2 2.5 ng/mL) [11] | 5.77
YT (IL-2 2.5 ng/mL) [9] | 7.62
[1] | 11
[6] | 10.8
[7] | 9.95
[8] | 14
[13] | 12

percent inhibition of viability [%]
Details | 1 nM | 10 nM | 100 nM | 1000 nM | 10000 nM
DERL-7 (IL-2 2.5 ng/mL) [27] | 1.57 | 3.06 | 5.72 | 93 | 99.8
IMC-1 (IL-2 20 ng/mL) [16] | -3.43 | -4.48 | -1.24 | 6.25 | 86.2
KAI3 (IL-2 2.5 ng/mL) [18] | 1.77 | -7.13 | 13.3 | 71.7 | 96.4
KHYG-1 (IL-2 2.5 ng/mL) [17] | -4.53 | -3.7 | -1.91 | 20.5 | 94.6
NK-92 (IL-2 2.5 ng/mL) [15] | -2.5 | -9.68 | -24.1 | 16.9 | 89.1
NK-YS (IL-2 2.5 ng/mL) [25] | -3.94 | -6.06 | -3.31 | 54.3 | 93.6
NKL (IL-2 2.5 ng/mL) [23] | -4.48 | -6.86 | 12.5 | 103 | 96.3
SNK-6 (IL-2 2.5 ng/mL) [24] | 1.74 | -8.4 | -40.5 | 2.69 | 97.8
YT (IL-2 2.5 ng/mL) [22] | -0.01 | -0.09 | 2.11 | 16.2 | 89.5
[19] | -9.21 | -2.68 | -1.24 | 41.2 | 98.2
[20] | -12.5 | -4.95 | -4.4 | 34 | 94.8
[21] | -1.96 | -20.5 | -16.5 | 78.3 | 90.8
[26] | -2.89 | -12 | -5.86 | 54.6 | 98
[28] | 3.3 | -0.88 | -3.23 | 41.7 | 99.6
